What was measured:
[1] = human gut metagenome, 24 h, 2 µM
[2] = human gut metagenome, 24 h, 2 µM; remark: listed apart in the source
[3] = (§1) The drug is tested on Z-029 corresponding to rat gut metagenome with ENA study accession number: PRJEB37062 and ENA sample accession number: ERS12561828 for biotransformation under anaerobic condition. The drug concentrations were measured over 9 timepoints collected between 0 and 24 hours of incubation by liquid-chromatography-coupled mass spectrometry (LC–MS); settings: 2 µM
[4] = human gut metagenome, 24 h, 2 µM; remark: listed apart in the source
[5] = human gut metagenome, 24 h, 2 µM; remark: listed apart in the source
[6] = human gut metagenome, 24 h, 2 µM; remark: listed apart in the source
[7] = as §1, with “on Z-002” for “on Z-029”, “to rabbit” for “to rat”, “number: ERS12561802” for “number: ERS12561828”; settings: 2 µM
[8] = as §1, with “on WLS-038” for “on Z-029”, “to human” for “to rat”, “number: ERS12561745” for “number: ERS12561828”; settings: 2 µM
[9] = as §1, with “Z-019” for “Z-029”, “ERS12561818” for “ERS12561828”; settings: 2 µM
Also: call rule not given here.

SMILES	Bacterial Biotransformation [1]	Bacterial Biotransformation [2]	Bacterial Biotransformation [3]	Bacterial Biotransformation [4]	Bacterial Biotransformation [5]	Bacterial Biotransformation [6]	Bacterial Biotransformation [7]	Bacterial Biotransformation [8]	Bacterial Biotransformation [9]
CCN(CC)CCOC(=O)C(Cc1cccc2ccccc12)CC1CCCO1.O=C(O)C(=O)O (stereo not drawn) [NAFRONYL OXALATE]	Compound metabolized	Compound metabolized	Compound NOT metabolized	Compound metabolized	Compound metabolized	Compound metabolized	Compound metabolized	Compound metabolized	Compound NOT metabolized
CS(=O)(=O)O.OC(CCN1CCCCC1)(c1ccccc1)c1ccccc1 [PRIDINOL METHANESULFONATE]	Compound metabolized	Compound metabolized	Compound NOT metabolized	Compound NOT metabolized	Compound NOT metabolized	Compound NOT metabolized	Compound metabolized	Compound NOT metabolized	Compound NOT metabolized
CCCCc1nc(Cl)c(CO)n1Cc1ccc(-c2ccccc2-c2nn[nH]n2)cc1 [LOSARTAN]	Compound metabolized	Compound NOT metabolized	Compound metabolized	Compound metabolized	Compound metabolized	Compound metabolized	Compound NOT metabolized	Compound NOT metabolized	Compound NOT metabolized
CCc1nn(CCCN2CCN(c3cccc(Cl)c3)CC2)c(=O)n1CCOc1ccccc1 [NEFAZODONE]	Compound metabolized	Compound metabolized	Compound NOT metabolized	Compound NOT metabolized	Compound NOT metabolized	Compound NOT metabolized	Compound NOT metabolized	Compound metabolized	Compound NOT metabolized
Cc1ccccc1N1C(=O)c2cc(S(N)(=O)=O)c(Cl)cc2NC1C (stereo not drawn) [METOLAZONE]	Compound NOT metabolized	Compound metabolized	Compound NOT metabolized	Compound NOT metabolized	Compound NOT metabolized	Compound metabolized	Compound NOT metabolized	Compound NOT metabolized	Compound NOT metabolized
CN1CCc2c(c3ccccc3n2Cc2ccccc2)C1.CN1CCc2c(c3ccccc3n2Cc2ccccc2)C1.O=S(=O)(O)c1cccc2c(S(=O)(=O)O)cccc12	Compound NOT metabolized	Compound NOT metabolized	Compound NOT metabolized	Compound NOT metabolized	Compound NOT metabolized	Compound metabolized	Compound NOT metabolized	Compound NOT metabolized	Compound NOT metabolized
C[C@@H](CO)NC(=O)[C@@H]1C=C2c3cccc4[nH]cc(c34)C[C@H]2N(C)C1.O=C(O)/C=C\C(=O)O [ERGONOVINE MALEATE]	Compound NOT metabolized	Compound metabolized	Compound NOT metabolized	Compound NOT metabolized	Compound metabolized	Compound NOT metabolized	Compound NOT metabolized	Compound metabolized	Compound NOT metabolized
CN(C)C(=O)C(CCN1CCC(O)(c2ccc(Cl)cc2)CC1)(c1ccccc1)c1ccccc1 [LOPERAMIDE]	Compound metabolized	Compound metabolized	Compound NOT metabolized	Compound metabolized	Compound metabolized	Compound metabolized	Compound metabolized	Compound metabolized	Compound NOT metabolized
O=c1[nH]c2ccccc2n1C1CCN(CCCC(c2ccc(F)cc2)c2ccc(F)cc2)CC1 [PIMOZIDE]	Compound metabolized	Compound metabolized	Compound NOT metabolized	Compound NOT metabolized	Compound metabolized	Compound NOT metabolized	Compound NOT metabolized	Compound metabolized	Compound NOT metabolized
CC(C)N(CCC(C(N)=O)(c1ccccc1)c1ccccn1)C(C)C.O=P(O)(O)O (stereo not drawn) [DISOPYRAMIDE PHOSPHATE]	Compound NOT metabolized	Compound NOT metabolized	Compound NOT metabolized	Compound NOT metabolized	Compound NOT metabolized	Compound NOT metabolized	Compound NOT metabolized	Compound NOT metabolized	Compound NOT metabolized
CN(C)CCC=C1c2ccccc2C=Cc2ccccc21 [CYCLOBENZAPRINE]	Compound metabolized	Compound metabolized	Compound NOT metabolized	Compound NOT metabolized	Compound NOT metabolized	Compound metabolized	Compound metabolized	Compound NOT metabolized	Compound NOT metabolized
CC(C)(C(=O)O)c1ccc(C(O)CCCN2CCC(C(O)(c3ccccc3)c3ccccc3)CC2)cc1 (stereo not drawn) [FEXOFENADINE]	Compound NOT metabolized	Compound NOT metabolized	Compound NOT metabolized	Compound NOT metabolized	Compound NOT metabolized	Compound NOT metabolized	Compound metabolized	Compound NOT metabolized	Compound NOT metabolized

— ChEMBL document CHEMBL5724914, “Linking interpersonal differences in gut microbiota composition and drug biotransformation activity” (2024)
